ChEMBL document CHEMBL3044672, “N9- and N7-(Chloromethyl Phenymethyl)Chloropurine Derivatives from , '-Dichloroxylenes: Synthesis and Anticancer Activity” (2005)

Columns and labels:
Type in all cases: functional
[1] = tested on: ACHN; test: Cytotoxicity against Homo sapiens (human) ACHN cells after 48 hr by sulforhodamine B assay
[2] = tested on: NCI-H23; test: Cytotoxicity against Homo sapiens (human) NCI-H23 cells after 48 hr by sulforhodamine B assay; conditions: NCI-H23, 48 h; for CC50: read-out: LC50 (the source's name)
[3] = tested on: Hs-578T; test: Cytotoxicity against Homo sapiens (human) Hs 578T cells after 48 hr by sulforhodamine B assay
[4] = tested on: UACC-62; test: Cytotoxicity against Homo sapiens (human) UACC62 cells after 48 hr by sulforhodamine B assay; conditions: UACC-62, 48 h
[5] = tested on: EKVX; test: Cytotoxicity against Homo sapiens (human) EKVX cells after 48 hr by sulforhodamine B assay; conditions: for CC50: read-out: LC50 (the source's name)
[6] = tested on: TK-10; test: Cytotoxicity against Homo sapiens (human) TK10 cells after 48 hr by sulforhodamine B assay; conditions: TK-10, 48 h; for CC50: read-out: LC50 (the source's name)
[7] = tested on: 786-0; test: Cytotoxicity against Homo sapiens (human) 786-0 cells after 48 hr by sulforhodamine B assay; conditions: 786-0, 48 h
[8] = tested on: SK-MEL-5; test: Cytotoxicity against Homo sapiens (human) SK-MEL-5 cells after 48 hr by sulforhodamine B assay; conditions: SK-MEL-5, 48 h
[9] = tested on: NCI-H460; test: Cytotoxicity against Homo sapiens (human) NCI-H460 cells after 48 hr by sulforhodamine B assay; conditions: NCI-H460, 48 h; for CC50: read-out: LC50 (the source's name)
[10] = tested on: SK-OV-3; test: Cytotoxicity against Homo sapiens (human) SKOV3 cells after 48 hr by sulforhodamine B assay; conditions: SK-OV-3, 48 h
[11] = tested on: SK-MEL-2; test: Cytotoxicity against Homo sapiens (human) SK-MEL-2 cells after 48 hr by sulforhodamine B assay; conditions: SK-MEL-2, 48 h
[12] = tested on: T47D; test: Cytotoxicity against Homo sapiens (human) T47D cells after 48 hr by sulforhodamine B assay
[13] = tested on: HOP-92; test: Cytotoxicity against Homo sapiens (human) HOP92 cells after 48 hr by sulforhodamine B assay; conditions: HOP-92, 48 h; for CC50: read-out: LC50 (the source's name)
[14] = tested on: MOLT-4; test: Cytotoxicity against Homo sapiens (human) MOLT4 cells after 48 hr by sulforhodamine B assay; conditions: MOLT-4, 48 h
[15] = tested on: LOX IMVI; test: Cytotoxicity against Homo sapiens (human) LOXIMVI cells after 48 hr by sulforhodamine B assay
[16] = tested on: HOP-62; test: Cytotoxicity against Homo sapiens (human) HOP62 cells after 48 hr by sulforhodamine B assay; conditions: HOP-62, 48 h; for CC50: read-out: LC50 (the source's name)
[17] = tested on: M14; test: Cytotoxicity against Homo sapiens (human) M14 cells after 48 hr by sulforhodamine B assay; conditions: M14, 48 h
[18] = tested on: NCI-H322M; test: Cytotoxicity against Homo sapiens (human) NCI-H322M cells after 48 hr by sulforhodamine B assay; conditions: for CC50: read-out: LC50 (the source's name)
[19] = tested on: UACC-257; test: Cytotoxicity against Homo sapiens (human) UACC257 cells after 48 hr by sulforhodamine B assay; conditions: UACC-257, 48 h
[20] = tested on: HCC 2998; test: Cytotoxicity against Homo sapiens (human) HCC2998 cells after 48 hr by sulforhodamine B assay; conditions: HCC 2998, 48 h; for CC50: read-out: LC50 (the source's name)
[21] = tested on: MCF7; test: Cytotoxicity against Homo sapiens (human) MCF7 cells assessed as cell growth at 10^-4 M after 48 hr by Alamar blue assay; conditions: MCF7, 48 h, read-out: Activity
[22] = tested on: SNB-19; test: Cytotoxicity against Homo sapiens (human) SNB19 cells after 48 hr by sulforhodamine B assay; conditions: SNB-19, 48 h
[23] = tested on: DU-145; test: Cytotoxicity against Homo sapiens (human) DU145 cells after 48 hr by sulforhodamine B assay; conditions: DU-145, 48 h
[24] = Cytotoxicity against Homo sapiens (human) NCI-ADR-RES cells after 48 hr by sulforhodamine B assay
[25] = tested on: MDA-MB-231; test: Cytotoxicity against Homo sapiens (human) MDA-MB-231 cells after 48 hr by sulforhodamine B assay; conditions: MDA-MB-231, 48 h
[26] = tested on: IGROV-1; test: Cytotoxicity against Homo sapiens (human) IGROV1 cells after 48 hr by sulforhodamine B assay; conditions: IGROV-1, 48 h
[27] = tested on: OVCAR-5; test: Cytotoxicity against Homo sapiens (human) OVCAR5 cells after 48 hr by sulforhodamine B assay; conditions: OVCAR-5, 48 h; for CC50: read-out: LC50 (the source's name)
[28] = tested on: SF-268; test: Cytotoxicity against Homo sapiens (human) SF268 cells after 48 hr by sulforhodamine B assay; conditions: SF-268, 48 h; for CC50: read-out: LC50 (the source's name)
[29] = tested on: CAKI-1; test: Cytotoxicity against Homo sapiens (human) Caki1 cells after 48 hr by sulforhodamine B assay; conditions: CAKI-1, 48 h; for CC50: read-out: LC50 (the source's name)
[30] = tested on: SF-295; test: Cytotoxicity against Homo sapiens (human) SF295 cells after 48 hr by sulforhodamine B assay; conditions: SF-295, 48 h; for CC50: read-out: LC50 (the source's name)
[31] = tested on: A549; test: Cytotoxicity against Homo sapiens (human) A549 cells after 48 hr by sulforhodamine B assay; conditions: A549, 48 h; for CC50: read-out: LC50 (the source's name)
[32] = tested on: RXF 393; test: Cytotoxicity against Homo sapiens (human) RXF393 cells after 48 hr by sulforhodamine B assay; conditions: RXF 393, 48 h
[33] = read-out: LC50 (the source's name)

## Nc1nc(Cl)c2ncn(Cc3ccccc3CCl)c2n1
[1]
  TGI: 21.9 µM
[1]; [33]
  CC50: 75.9 µM
[2]
  TGI: 8.91 µM
  CC50: 78.9 µM
[3]
  LC50: > 100 µM
  TGI: 77.6 µM
[4]
  LC50 (concentration causing 50% net cell kill): 8.51 µM
  TGI: 4.37 µM
[5]
  TGI: 30.9 µM
  CC50: 60.3 µM
[6]
  TGI: 36.3 µM
  CC50: 75.9 µM
[7]
  LC50: > 100 µM
  TGI: 52.5 µM
[8]
  LC50: 75.9 µM
  TGI: 26.3 µM
[9]
  TGI: 37.1 µM
  CC50: > 100 µM
[10]
  LC50: > 100 µM
  TGI: 52.5 µM
[11]
  LC50 (concentration killing 50% of cells): > 100 µM
  TGI: 81.3 µM
[12]
  LC50: > 100 µM
  TGI: 83.2 µM
[13]
  TGI: 30.9 µM
  CC50: > 100 µM
[14]
  TGI: > 100 µM
[14]; [33]
  CC50: > 100 µM
[15]
  LC50: > 100 µM
  TGI: 21.9 µM
[16]
  TGI: 61.7 µM
  CC50: > 100 µM
[17]
  LC50: > 100 µM
  TGI: 39.8 µM
[18]
  TGI: 29.5 µM
  CC50: 69.2 µM
[19]
  LC50 (concentration killing 50% of cells): > 100 µM
  TGI: 38 µM
[20]
  TGI: 6.61 µM
  CC50: 26.3 µM
[21]
  growth at 100 µM: 0%
[22]
  LC50: > 100 µM
  TGI: 27.5 µM
[23]
  LC50: 70.8 µM
  TGI: 32.4 µM
[24]
  LC50 (concentration killing 50% of cells): > 100 µM
  TGI: 34.7 µM
[25]
  LC50: 63.1 µM
  TGI: 9.55 µM
[26]
  LC50: > 100 µM
  TGI: > 100 µM
[27]
  TGI: 39.8 µM
  CC50: 79.4 µM
[28]
  TGI: 14.5 µM
  CC50: 97.2 µM
[29]
  TGI: 20.4 µM
  CC50: 50.1 µM
[30]
  TGI: 23.4 µM
  CC50: 63.1 µM
[31]
  TGI: 53.7 µM
  CC50: > 100 µM

## ClCc1ccc(Cn2cnc3ncnc(Cl)c32)cc1
[2]
  GI50: 15.8 µM
  TGI: 30.9 µM
  CC50: 58.9 µM
[3]
  GI50: 1.73 µM
  LC50: > 100 µM
  TGI: 4.26 µM
[4]
  GI50: 2.51 µM
  LC50 (concentration causing 50% net cell kill): 34.7 µM
  TGI: 12 µM
[5]
  GI50: 2.23 µM
  TGI: 4.46 µM
  CC50: 8.7 µM
[6]
  GI50: 1.47 µM
  TGI: 2.95 µM
  CC50: 5.75 µM
[7]
  GI50: 1.69 µM
  LC50: 5.49 µM
  TGI: 3.01 µM
[8]
  GI50: 2.81 µM
  LC50: 34.7 µM
  TGI: 12 µM
[9]
  GI50: 1.77 µM
  TGI: 4.26 µM
  CC50: 17.4 µM
[10]
  GI50: 11.2 µM
  LC50: 47.9 µM
  TGI: 23.4 µM
[11]
  GI50: 6.3 µM
  LC50 (concentration killing 50% of cells): > 100 µM
  TGI: > 100 µM
[12]
  GI50: 1.28 µM
  LC50: 6.3 µM
  TGI: 2.88 µM
[13]
  GI50: 1.17 µM
  TGI: 2.51 µM
  CC50: 5.49 µM
[16]
  GI50: 1.77 µM
  TGI: 3.16 µM
  CC50: 5.62 µM
[17]
  GI50: 2.75 µM
  LC50: 37.1 µM
  TGI: 13.2 µM
[18]
  GI50: 1.62 µM
  TGI: 3.01 µM
  CC50: 5.62 µM
[32]
  GI50: 1.65 µM
  TGI: 4.16 µM
[32]; [33]
  CC50: 12 µM
[19]
  GI50: 1.58 µM
  LC50 (concentration killing 50% of cells): 7.76 µM
  TGI: 3.46 µM
[20]
  GI50: 1.41 µM
  TGI: 2.88 µM
  CC50: 5.75 µM
[21]
  growth at 100 µM: 23%
[22]
  GI50: 1.69 µM
  LC50: 5.75 µM
  TGI: 3.16 µM
[24]
  GI50: 1.81 µM
  LC50 (concentration killing 50% of cells): 15.5 µM
  TGI: 4.67 µM
[25]
  GI50: 1.77 µM
  LC50: 6.3 µM
  TGI: 3.38 µM
[26]
  GI50: 7.58 µM
  LC50: > 100 µM
  TGI: 30.9 µM
[27]
  GI50: 6.3 µM
  TGI: 19.5 µM
  CC50: 45.7 µM
[28]
  GI50: 1.65 µM
  TGI: 3.38 µM
  CC50: 7.07 µM
[29]
  GI50: 1.99 µM
  TGI: 4.46 µM
  CC50: 9.77 µM
[30]
  GI50: 2.04 µM
  TGI: 5.01 µM
  CC50: 17 µM
[31]
  GI50: 1.81 µM
  TGI: 4.16 µM
  CC50: 9.33 µM
